In patent US8697739B2, “Bicyclic acetyl-CoA carboxylase inhibitors and uses thereof” (Novartis AG, priority 2010, dated 2014):

The molecules below were run against T1, human acetyl-CoA carboxylase 2 (ACC2) (Homo sapiens, UniProt O00763) (assay: Acetyl-CoA carboxylase enzyme assay (malonyl-CoA formation by LC/MS/MS)). Details: recombinant human ACC2 (aa 144-2458); read-out: IC50 ACC2.
T1 construct: The cDNA encoding amino acids 144 to 2458 of human acetyl-CoA carboxylase 2; made in house; host or cells: Sf9 insect cells (baculovirus, pFastBac1)
T1 sequence (O00763 144-2458): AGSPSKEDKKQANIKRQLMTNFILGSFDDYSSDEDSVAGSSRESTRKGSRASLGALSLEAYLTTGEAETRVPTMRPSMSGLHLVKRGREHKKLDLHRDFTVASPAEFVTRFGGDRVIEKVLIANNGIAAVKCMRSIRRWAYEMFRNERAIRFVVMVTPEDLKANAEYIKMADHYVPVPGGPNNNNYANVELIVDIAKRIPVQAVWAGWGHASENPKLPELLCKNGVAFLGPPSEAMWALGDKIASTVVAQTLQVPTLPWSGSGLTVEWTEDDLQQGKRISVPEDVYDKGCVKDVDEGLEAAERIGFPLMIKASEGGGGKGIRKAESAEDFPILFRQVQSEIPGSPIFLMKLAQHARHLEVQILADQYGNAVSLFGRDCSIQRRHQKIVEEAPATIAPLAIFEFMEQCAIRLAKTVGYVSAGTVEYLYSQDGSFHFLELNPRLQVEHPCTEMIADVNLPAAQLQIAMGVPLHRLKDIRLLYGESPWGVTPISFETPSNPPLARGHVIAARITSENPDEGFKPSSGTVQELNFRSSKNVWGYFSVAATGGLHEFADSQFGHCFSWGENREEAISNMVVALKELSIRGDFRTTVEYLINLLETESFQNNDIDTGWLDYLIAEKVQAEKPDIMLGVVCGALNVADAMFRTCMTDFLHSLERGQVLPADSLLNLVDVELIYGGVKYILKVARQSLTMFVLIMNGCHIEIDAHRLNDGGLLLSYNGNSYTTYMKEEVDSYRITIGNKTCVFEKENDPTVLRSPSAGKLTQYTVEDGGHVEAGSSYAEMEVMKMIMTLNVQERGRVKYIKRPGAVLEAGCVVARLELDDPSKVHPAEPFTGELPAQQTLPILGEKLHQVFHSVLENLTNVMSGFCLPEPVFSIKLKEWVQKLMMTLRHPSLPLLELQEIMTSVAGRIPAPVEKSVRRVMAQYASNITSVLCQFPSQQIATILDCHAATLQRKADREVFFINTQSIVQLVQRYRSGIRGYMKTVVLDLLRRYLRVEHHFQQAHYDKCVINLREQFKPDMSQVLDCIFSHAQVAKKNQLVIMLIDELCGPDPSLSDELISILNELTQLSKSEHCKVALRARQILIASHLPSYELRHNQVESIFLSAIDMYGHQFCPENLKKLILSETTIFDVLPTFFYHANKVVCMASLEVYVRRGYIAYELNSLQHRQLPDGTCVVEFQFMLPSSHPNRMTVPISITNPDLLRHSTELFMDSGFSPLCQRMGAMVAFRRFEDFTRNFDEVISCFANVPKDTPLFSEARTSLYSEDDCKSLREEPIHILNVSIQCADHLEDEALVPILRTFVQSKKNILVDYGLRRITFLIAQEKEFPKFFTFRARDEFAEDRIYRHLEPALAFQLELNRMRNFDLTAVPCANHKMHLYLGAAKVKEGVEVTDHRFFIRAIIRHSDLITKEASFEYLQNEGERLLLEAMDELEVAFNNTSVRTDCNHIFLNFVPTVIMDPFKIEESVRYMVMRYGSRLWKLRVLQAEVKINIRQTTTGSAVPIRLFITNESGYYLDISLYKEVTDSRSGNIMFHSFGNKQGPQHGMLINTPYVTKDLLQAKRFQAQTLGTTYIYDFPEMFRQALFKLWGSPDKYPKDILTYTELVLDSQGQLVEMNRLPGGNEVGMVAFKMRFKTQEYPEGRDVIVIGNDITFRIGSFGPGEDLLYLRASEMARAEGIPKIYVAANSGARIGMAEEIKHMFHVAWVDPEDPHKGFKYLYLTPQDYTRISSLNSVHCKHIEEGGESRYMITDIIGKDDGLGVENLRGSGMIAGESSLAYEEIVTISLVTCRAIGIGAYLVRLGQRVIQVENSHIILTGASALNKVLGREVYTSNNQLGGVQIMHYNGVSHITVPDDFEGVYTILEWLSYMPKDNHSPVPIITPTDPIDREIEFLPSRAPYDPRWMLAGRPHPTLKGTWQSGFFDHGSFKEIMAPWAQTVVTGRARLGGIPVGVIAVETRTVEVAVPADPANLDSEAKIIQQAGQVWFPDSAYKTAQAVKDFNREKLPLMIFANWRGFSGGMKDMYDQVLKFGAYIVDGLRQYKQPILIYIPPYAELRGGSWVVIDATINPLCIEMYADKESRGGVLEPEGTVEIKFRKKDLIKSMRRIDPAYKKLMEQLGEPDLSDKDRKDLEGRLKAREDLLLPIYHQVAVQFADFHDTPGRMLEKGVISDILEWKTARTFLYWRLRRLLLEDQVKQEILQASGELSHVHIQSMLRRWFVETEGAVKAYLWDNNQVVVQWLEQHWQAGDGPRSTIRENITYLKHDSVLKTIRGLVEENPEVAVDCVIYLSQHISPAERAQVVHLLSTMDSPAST
Format: biochemical
Summary of the method: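 Malonyl-CoA formation was read by LC/MS/MS MRM against a [13C3]-malonyl-CoA internal standard, after acetic acid quench. The enzyme was baculovirus/Sf9-expressed human ACC2 residues 144–2458, given 15 minutes room-temperature compound preincubation in HEPES pH 7.5 buffer with MgCl2, citrate and DTT. Substrate solution held 50 μM acetyl-CoA, 120 μM ATP and 2 mM KHCO3.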

Compound	IC50
CC(C)OC(=O)c1ccc(NS(=O)(=O)c2ccc3nc(-c4ccc(Oc5ccccc5)cc4)[nH]c3c2)cc1 [Example 507, isopropyl 4-(2-(4-phenoxyphenyl)-1H-benzo[d]imidazole-6-sulfonamido)benzoate]	22.1 µM
CC(C)OC(=O)c1ccc(NS(=O)(=O)c2ccc3nc(-c4ccc(N(C)C)cc4)[nH]c3c2)cc1 [Example 508, isopropyl 4-(2-(4-(dimethylamino)phenyl)-1H-benzo[d]imidazole-6-sulfonamido)benzoate]	1.38 µM
CC(C)OC(=O)c1ccc(NS(=O)(=O)c2ccc3nc(-c4ccc(C(=O)O)cc4)[nH]c3c2)cc1 [Example 509, 4-(6-(N-(4-(isopropoxycarbonyl)phenyl)sulfamoyl)-1H-benzo[d]imidazol-2-yl)benzoic acid]	0.678 µM
CC(C)OC(=O)c1ccc(NS(=O)(=O)c2ccc3nc(-c4cncs4)[nH]c3c2)cc1 [Example 510, isopropyl 4-(2-(thiazol-5-yl)-1H-benzo[d]imidazole-6-sulfonamido)benzoate]	1.81 µM
CC(C)OC(=O)c1ccc(NS(=O)(=O)c2ccc3nc(-c4cccc(O)c4)[nH]c3c2)cc1 [Example 511, isopropyl 4-(2-(3-hydroxyphenyl)-1H-benzo[d]imidazole-6-sulfonamido)benzoate]	1.05 µM
CC(C)OC(=O)c1ccc(NS(=O)(=O)c2ccc3nc(-c4ccc(C(C)(C)C)cc4)[nH]c3c2)cc1 [Example 512, isopropyl 4-(2-(4-tert-butylphenyl)-1H-benzo[d]imidazole-6-sulfonamido)benzoate]	2.29 µM
CC(C)(C)c1nnc(-c2ccc(NS(=O)(=O)c3ccc4nc(-c5ccccc5)[nH]c4c3)cc2)o1 [Example 513, N-(4-(5-tert-butyl-1,3,4-oxadiazol-2-yl)phenyl)-2-phenyl-1H-benzo[d]imidazole-6-sulfonamide]	2.88 µM
CC(C)OC(=O)c1ccc(NS(=O)(=O)c2ccc3nc(-c4ccc(S(C)(=O)=O)cc4)[nH]c3c2)cc1 [Example 514, isopropyl 4-(2-(4-(methylsulfonyl)phenyl)-1H-benzo[d]imidazole-6-sulfonamido)benzoate]	0.838 µM
CC(C)OC(=O)c1ccc(NS(=O)(=O)c2ccc3nc(-c4ccncc4)[nH]c3c2)cc1 [Example 515, isopropyl 4-(2-(pyridin-4-yl)-1H-benzo[d]imidazole-6-sulfonamido)benzoate]	2.86 µM
COc1ccc(-c2nc3ccc(S(=O)(=O)Nc4ccc(C(=O)OC(C)C)cc4)cc3[nH]2)cc1OC [Example 516, isopropyl 4-(2-(3,4-dimethoxyphenyl)-1H-benzo[d]imidazole-6-sulfonamido)benzoate]	1.21 µM
CC(C)OC(=O)c1ccc(NS(=O)(=O)c2ccc3nc(-c4ccc(C(C)O)cc4)[nH]c3c2)cc1 (stereo not drawn) [Example 517, isopropyl 4-(2-(4-(1-hydroxyethyl)phenyl)-1H-benzo[d]imidazole-6-sulfonamido)benzoate]	0.247 µM
O=S(=O)(Nc1ccc(-c2nnc(-c3ccccc3)o2)cc1)c1ccc2nc(-c3ccccc3)[nH]c2c1 [Example 518, 2-phenyl-N-(4-(5-phenyl-1,3,4-oxadiazol-2-yl)phenyl)-1H-benzo[d]imidazole-6-sulfonamide]	3.58 µM
O=S(=O)(Nc1ccc(-c2nnc(C3CCCCC3)o2)cc1)c1ccc2nc(-c3ccccc3)[nH]c2c1 [Example 519, N-(4-(5-cyclohexyl-1,3,4-oxadiazol-2-yl)phenyl)-2-phenyl-1H-benzo[d]imidazole-6-sulfonamide]	32 µM
COCc1nnc(-c2ccc(NS(=O)(=O)c3ccc4nc(-c5ccccc5)[nH]c4c3)cc2)o1 [Example 520, N-(4-(5-(methoxymethyl)-1,3,4-oxadiazol-2-yl)phenyl)-2-phenyl-1H-benzo[d]imidazole-6-sulfonamide]	9.35 µM
CC(C)OC(=O)c1ccc(NS(=O)(=O)c2ccc3[nH]c(Nc4ccccc4)nc3c2)cc1 [Example 521, isopropyl 4-(2-(phenylamino)-1H-benzo[d]imidazole-5-sulfonamido)benzoate]	0.239 µM
